Measurements reported in US11141413B2, “Method of treating renal cell carcinoma using N-(4-(6,7-dimethoxyquinolin-4-yloxy)phenyl)-N′-(4-fluorophenyl)cyclopropane-1,1-dicarboxamide, (2S)-hydroxybutanedioate” (Exelixis, Inc., priority 2016, dated 2021).

Legend:
[1] = biological target: CYP1A2 (Homo sapiens, UniProt P05177); test: In vitro CYP inhibition by cabozantinib; assay type: in vitro ADME
[2] = tested on: female rats; test: 14-day general toxicology study in female rats; assay type: in vivo, rat; conditions: 5 mg/kg/day for 14 days
[3] = Pharmacokinetics in patients with hepatic impairment; assay type: in vivo, human
Source text: Patients with severe hepatic impairment have not been studied.

[4] = biological target: CYP2C8 (Homo sapiens, UniProt P10632); test: Metabolic pathways in vitro: effect of CYP inhibition on cabozantinib metabolite formation; assay type: in vitro ADME
Sequence of CYP2C8 (P10632 whole entry): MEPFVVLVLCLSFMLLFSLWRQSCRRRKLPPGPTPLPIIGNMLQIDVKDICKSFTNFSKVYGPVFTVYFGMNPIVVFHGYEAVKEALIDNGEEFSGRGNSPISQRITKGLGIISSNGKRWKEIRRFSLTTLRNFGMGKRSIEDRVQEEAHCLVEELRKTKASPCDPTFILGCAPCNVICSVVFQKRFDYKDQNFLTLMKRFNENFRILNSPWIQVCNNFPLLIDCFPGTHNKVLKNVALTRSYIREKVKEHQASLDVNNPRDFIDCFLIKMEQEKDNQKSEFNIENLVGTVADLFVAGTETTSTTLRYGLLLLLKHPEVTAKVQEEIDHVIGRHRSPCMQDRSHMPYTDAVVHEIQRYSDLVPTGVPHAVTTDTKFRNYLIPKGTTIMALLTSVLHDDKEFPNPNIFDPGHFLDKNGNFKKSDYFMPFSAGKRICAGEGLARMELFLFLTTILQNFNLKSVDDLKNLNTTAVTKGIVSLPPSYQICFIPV

[5] = biological target: KIT (Homo sapiens, UniProt P10721); test: In vitro biochemical and/or cellular kinase assays
Sequence of KIT (P10721 26-976): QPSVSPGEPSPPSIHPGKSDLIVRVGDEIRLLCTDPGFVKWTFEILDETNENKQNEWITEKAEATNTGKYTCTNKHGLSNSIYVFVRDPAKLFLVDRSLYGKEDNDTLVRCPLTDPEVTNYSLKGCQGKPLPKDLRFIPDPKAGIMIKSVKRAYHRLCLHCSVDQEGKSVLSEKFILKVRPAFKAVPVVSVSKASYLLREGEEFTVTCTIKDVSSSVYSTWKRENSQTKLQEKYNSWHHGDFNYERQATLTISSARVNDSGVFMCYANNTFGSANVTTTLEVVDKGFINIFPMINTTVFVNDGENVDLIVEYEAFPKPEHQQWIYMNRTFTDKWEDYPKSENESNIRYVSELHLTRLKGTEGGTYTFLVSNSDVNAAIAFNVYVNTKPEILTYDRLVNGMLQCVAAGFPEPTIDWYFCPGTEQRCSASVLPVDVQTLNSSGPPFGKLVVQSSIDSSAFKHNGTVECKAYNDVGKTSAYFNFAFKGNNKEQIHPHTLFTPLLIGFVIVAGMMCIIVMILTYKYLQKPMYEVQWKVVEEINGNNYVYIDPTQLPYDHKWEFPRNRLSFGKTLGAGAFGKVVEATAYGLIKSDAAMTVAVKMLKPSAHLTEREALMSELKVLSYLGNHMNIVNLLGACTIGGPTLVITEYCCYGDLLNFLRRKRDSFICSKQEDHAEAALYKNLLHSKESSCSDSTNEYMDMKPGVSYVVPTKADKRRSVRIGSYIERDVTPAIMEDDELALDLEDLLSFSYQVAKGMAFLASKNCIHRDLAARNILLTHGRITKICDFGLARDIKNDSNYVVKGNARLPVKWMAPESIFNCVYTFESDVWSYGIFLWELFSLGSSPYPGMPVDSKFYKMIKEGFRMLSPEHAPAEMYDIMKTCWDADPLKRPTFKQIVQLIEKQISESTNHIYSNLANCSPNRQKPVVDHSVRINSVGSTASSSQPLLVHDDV

[6] = biological target: T1, CYP3A4 (Homo sapiens, UniProt P08684); test: Clinical drug interaction: strong CYP3A4 inhibitor ketoconazole on cabozantinib; assay type: in vivo; set-up: from tissue; conditions: with ketoconazole 400 mg daily for 27 days, healthy subjects
T1 sequence (P08684 whole entry): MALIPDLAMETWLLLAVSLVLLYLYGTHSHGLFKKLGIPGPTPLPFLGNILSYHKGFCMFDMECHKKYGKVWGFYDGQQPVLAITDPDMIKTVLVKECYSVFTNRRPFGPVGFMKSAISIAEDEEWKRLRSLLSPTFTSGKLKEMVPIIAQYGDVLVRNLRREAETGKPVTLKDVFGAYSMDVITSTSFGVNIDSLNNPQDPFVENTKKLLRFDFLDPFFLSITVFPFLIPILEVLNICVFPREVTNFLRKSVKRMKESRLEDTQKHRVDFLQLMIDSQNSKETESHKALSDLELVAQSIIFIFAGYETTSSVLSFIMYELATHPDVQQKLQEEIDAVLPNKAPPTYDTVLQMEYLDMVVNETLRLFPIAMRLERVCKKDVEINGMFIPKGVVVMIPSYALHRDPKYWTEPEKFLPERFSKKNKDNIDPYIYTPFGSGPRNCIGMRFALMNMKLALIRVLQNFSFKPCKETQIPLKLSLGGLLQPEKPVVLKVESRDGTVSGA

[7] = biological target: RET (Homo sapiens, UniProt P07949); test: In vitro biochemical and/or cellular kinase assays
[8] = biological target: T1, CYP3A4; test: Clinical drug interaction: strong CYP3A4 inducer rifampin on cabozantinib; assay type: in vivo; set-up: from tissue; conditions: with rifampin 600 mg daily for 31 days, healthy subjects
[9] = biological target: MER (Homo sapiens, UniProt Q12866); test: In vitro biochemical and/or cellular kinase assays
Sequence of MER (Q12866 21-999): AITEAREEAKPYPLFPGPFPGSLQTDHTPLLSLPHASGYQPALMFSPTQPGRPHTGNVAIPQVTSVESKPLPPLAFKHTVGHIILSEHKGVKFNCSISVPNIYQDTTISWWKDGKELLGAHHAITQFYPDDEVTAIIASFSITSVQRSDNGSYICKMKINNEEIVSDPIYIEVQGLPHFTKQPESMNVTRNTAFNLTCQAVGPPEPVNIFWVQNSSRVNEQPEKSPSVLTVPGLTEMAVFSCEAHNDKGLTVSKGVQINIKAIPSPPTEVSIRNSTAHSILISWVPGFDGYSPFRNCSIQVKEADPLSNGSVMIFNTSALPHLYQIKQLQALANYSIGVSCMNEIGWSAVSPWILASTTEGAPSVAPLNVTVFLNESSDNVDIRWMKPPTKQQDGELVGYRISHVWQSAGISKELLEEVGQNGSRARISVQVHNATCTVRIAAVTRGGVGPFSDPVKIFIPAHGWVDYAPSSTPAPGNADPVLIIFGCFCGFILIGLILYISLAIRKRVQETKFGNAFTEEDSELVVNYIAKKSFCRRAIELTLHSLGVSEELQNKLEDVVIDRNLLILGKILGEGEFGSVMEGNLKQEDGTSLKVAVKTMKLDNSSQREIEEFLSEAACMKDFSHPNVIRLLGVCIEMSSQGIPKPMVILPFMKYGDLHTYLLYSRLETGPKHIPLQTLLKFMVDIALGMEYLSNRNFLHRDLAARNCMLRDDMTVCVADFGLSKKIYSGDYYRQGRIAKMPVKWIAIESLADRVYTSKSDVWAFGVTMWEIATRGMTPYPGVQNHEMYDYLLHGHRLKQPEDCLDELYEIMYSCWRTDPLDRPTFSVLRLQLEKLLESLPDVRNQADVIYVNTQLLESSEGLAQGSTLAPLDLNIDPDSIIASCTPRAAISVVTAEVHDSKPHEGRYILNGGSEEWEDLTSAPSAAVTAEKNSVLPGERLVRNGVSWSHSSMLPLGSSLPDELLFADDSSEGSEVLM

[10] = tested on: rasH2 transgenic mice; test: 26-week carcinogenicity study; conditions: 26-week study
[11] = tested on: renal cell carcinoma (RCC) patients; test: Exposure-response (ER) Cox proportional hazard model of progression-free survival; conditions: time-varying average daily cabozantinib concentration
[12] = biological target: CYP2A6 (Homo sapiens, UniProt P11509); test: Metabolic pathways in vitro: effect of CYP inhibition on cabozantinib metabolite formation; assay type: in vitro ADME
Sequence of CYP2A6 (P11509 whole entry): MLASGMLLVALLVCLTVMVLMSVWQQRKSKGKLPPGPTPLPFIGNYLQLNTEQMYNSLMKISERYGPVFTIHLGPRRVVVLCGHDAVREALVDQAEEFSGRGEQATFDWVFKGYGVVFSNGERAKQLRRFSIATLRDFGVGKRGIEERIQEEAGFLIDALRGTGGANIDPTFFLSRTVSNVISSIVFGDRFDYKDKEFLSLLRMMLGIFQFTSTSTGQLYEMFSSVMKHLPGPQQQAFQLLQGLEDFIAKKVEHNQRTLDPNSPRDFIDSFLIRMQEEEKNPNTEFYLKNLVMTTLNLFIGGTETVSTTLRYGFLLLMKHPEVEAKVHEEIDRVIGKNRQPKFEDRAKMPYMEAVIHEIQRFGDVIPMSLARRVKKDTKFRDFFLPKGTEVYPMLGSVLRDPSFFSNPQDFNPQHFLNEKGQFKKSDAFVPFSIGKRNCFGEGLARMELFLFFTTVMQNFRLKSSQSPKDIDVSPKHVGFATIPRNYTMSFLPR

[13] = biological target: FLT-3 (Homo sapiens, UniProt P36888); test: In vitro biochemical and/or cellular kinase assays
Sequence of FLT-3 (P36888 27-993): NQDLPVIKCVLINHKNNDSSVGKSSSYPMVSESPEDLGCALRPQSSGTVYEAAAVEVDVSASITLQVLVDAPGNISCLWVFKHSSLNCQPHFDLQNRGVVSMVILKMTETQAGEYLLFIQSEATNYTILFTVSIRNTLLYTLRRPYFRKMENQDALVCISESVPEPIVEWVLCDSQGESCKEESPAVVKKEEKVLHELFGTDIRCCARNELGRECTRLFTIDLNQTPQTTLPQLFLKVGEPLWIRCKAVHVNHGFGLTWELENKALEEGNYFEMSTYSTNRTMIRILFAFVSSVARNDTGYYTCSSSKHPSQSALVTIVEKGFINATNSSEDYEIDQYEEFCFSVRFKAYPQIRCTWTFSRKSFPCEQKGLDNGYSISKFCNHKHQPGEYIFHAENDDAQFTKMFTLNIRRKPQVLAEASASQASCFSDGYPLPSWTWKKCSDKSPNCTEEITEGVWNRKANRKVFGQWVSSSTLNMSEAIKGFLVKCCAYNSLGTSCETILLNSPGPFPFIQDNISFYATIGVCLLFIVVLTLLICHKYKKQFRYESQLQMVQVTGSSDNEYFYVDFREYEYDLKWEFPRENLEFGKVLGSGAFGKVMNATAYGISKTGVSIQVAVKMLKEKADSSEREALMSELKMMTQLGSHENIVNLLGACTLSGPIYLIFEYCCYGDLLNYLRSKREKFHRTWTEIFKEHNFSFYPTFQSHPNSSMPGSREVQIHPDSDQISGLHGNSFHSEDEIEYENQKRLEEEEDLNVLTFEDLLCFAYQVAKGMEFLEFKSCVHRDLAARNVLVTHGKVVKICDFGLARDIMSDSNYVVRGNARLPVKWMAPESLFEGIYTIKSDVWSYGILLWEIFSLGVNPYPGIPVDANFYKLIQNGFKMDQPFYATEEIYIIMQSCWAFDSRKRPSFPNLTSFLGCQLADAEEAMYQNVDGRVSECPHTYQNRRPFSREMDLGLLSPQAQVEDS

Sequence of CYP1A2 (P05177 whole entry): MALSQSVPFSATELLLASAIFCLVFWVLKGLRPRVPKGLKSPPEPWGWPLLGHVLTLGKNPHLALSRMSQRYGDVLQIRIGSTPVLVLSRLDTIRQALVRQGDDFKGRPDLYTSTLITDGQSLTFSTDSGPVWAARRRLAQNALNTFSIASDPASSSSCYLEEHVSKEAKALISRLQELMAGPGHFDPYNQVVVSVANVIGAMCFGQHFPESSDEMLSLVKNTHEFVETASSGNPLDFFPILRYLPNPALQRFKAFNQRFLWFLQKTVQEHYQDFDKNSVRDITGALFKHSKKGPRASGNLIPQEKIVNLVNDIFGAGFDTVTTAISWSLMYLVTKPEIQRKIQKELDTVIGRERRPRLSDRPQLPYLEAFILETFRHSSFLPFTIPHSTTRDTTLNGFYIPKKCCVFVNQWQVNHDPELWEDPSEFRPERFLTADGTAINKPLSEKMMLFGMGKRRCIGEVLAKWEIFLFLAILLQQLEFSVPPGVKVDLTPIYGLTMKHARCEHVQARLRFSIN

## COc1cc2nccc(Oc3ccc(NC(=O)C4(C(=O)Nc5ccc(F)cc5)CC4)cc3)c2cc1OC [cabozantinib]
[1]
  Inhibition of CYP1A2 in vitro: does not inhibit
[2]
  Ovarian finding: exhibited ovarian necrosis
[3]; human, in vivo
  Exposure in patients with mild to moderate hepatic impairment: Increased exposure
[3]; mild (C-P A) hepatic impairment
  Increase in exposure (AUC0-inf): 81%
[3]; moderate (C-P B) hepatic impairment
  Increase in exposure (AUC0-inf): 63%
[4]
  Effect of inhibition of CYP2C8 on cabozantinib metabolite formation: no effect
[5]
  Inhibition of tyrosine kinase activity: inhibits
[6]
  Increase in single-dose plasma cabozantinib exposure (AUC0-inf): 38%
[7]
  Inhibition of tyrosine kinase activity: inhibits
[8]
  Decrease in single-dose plasma cabozantinib exposure (AUC0-inf): 77%
[9]
  Inhibition of tyrosine kinase activity: inhibits
[10]
  Carcinogenicity: not carcinogenic
[11]
  EC50 of best Emax model for rate of PD or death: 100 ng/mL
[12]
  Effect of inhibition of CYP2A6 on cabozantinib metabolite formation: no effect
[13]
  Inhibition of tyrosine kinase activity: inhibits
